Values of other authors in patent publication EP2839829B1 (Korea United Pharm. Inc., priority 2012, dated 2013).

Conditions: in the body

half life: about 1 hr
SMILES: OC[C@@H](O)CN1CCN(c2ccccc2)CC1 [levodropropizine]
